Calls of active or inactive are those of the source. No cut-off for these calls is given here.
Key:
[1] = Cytotoxicity against human HuH7 cells; assay type: cell-based, Huh-7
Hepatitis C virus = experiment: Antiviral activity against HCV in human HuH7 cells by replicon assay; assay type: functional, organism-based; conditions: Huh-7; for Activity: Hepacivirus hominis
[2] = test system: Hepatitis C virus subtype 1b; experiment: Inhibition of HCV genotype 1b NS5B RNA dependent RNA polymerase activity at 20 uM

Row | inhibition [2] | EC50 (Hepatitis C virus) | Structure (SMILES) | CC50 [1] | Activity (Hepatitis C virus)
1 |  |  | O=C(Nc1ccc(F)cc1)c1ccc(Cl)c(S(=O)(=O)N2CCOCC2)c1 | 15.6 µM | 
2 | 14% |  | Cn1ncc(Cl)c1C(=O)Nc1ccc2[nH]c(-c3ccccc3)nc2c1 | < 5 µM | inactive
3 | 90% |  | COC(=O)c1ccc(C(=O)Nc2ccc3[nH]c(-c4ccccc4)nc3c2)cc1 | < 5 µM | inactive
4 | 9% |  | CCC(=O)Nc1ccc(SC#N)c(C(F)(F)F)c1 | 45.8 µM | 
5 |  |  | COc1cc(/C=N/Nc2nc3ccccc3s2)ccc1OC(=O)c1ccco1 | 30.5 µM | 
6 |  |  | CC(=O)Nc1ccc2nc(-c3ccccn3)[nH]c2c1 | 24.8 µM | 
7 | 54% | 2.16 µM | Cn1ncc([N+](=O)[O-])c1C(=O)Nc1ccc2[nH]c(-c3ccccc3)nc2c1 | 34.5 µM | 
8 |  |  | O=C(Nc1ccc(NC(=O)c2cccs2)cc1Cl)c1ccco1 | 18 µM | 
9 | 48% |  | C=C(C)C(=O)Nc1ccc(NC(=O)C(=C)C)c(OC(F)(F)C(F)F)c1 | 29 µM | inactive
10 |  |  | O=C(Nc1cccc(Br)c1)c1ccc(Br)c(S(=O)(=O)Nc2ccccn2)c1 | > 50 µM | 
11 |  |  | O=C(Nc1ccc2[nH]c(-c3cccnc3)nc2c1)c1ccco1 | 20 µM | inactive
12 |  |  | CCCS(=O)(=O)c1ccc2[nH]c(NC(=O)OC)nc2c1 | < 5 µM | 
13 |  |  | O=C(COc1ccccc1Cl)Nc1ccc(Oc2ccc(F)cc2)c(C(F)(F)F)c1 | 14.2 µM | 
14 | 8% |  | CS(=O)(=O)N(Cc1ccccc1)c1ccc(C(=O)NCc2ccco2)cc1 | 32.7 µM | 
15 | 42.4% |  | O=C(Nc1ccc2[nH]c(-c3ccccn3)nc2c1)c1ccco1 | 20 µM | inactive
16 |  |  | C=CCNS(=O)(=O)c1ccc(OC)c(OC)c1 | 48.6 µM | 

Row | inhibition [2] | EC50 (Hepatitis C virus) | Structure (SMILES) | CC50 [1] | Activity (Hepatitis C virus)
17 |  |  | O=C(O)CNC(=O)/C(=C\c1cccc([N+](=O)[O-])c1)NC(=O)c1ccc(Br)o1 | > 50 µM | 
18 |  |  | CCOc1cc(NC(=O)CCl)c(OCC)cc1NC(C)=O | > 50 µM | 
19 | inactive |  | O=C(Nc1ccc2[nH]c(-c3ccccc3)nc2c1)c1ccco1 | < 5 µM | inactive
20 |  |  | Cc1ccc(C(=O)Nc2ccc(F)cc2)cc1S(=O)(=O)N1CCOCC1 | 16.5 µM | 
21 |  |  | CC(=O)Nc1ccc2[nH]c(-c3ccccn3)nc2c1 |  | inactive
22 |  |  | C=CCNC(=O)c1ccc(CN(c2cccc(Cl)c2)S(C)(=O)=O)cc1 | 33 µM | 
23 | 20% |  | O=C(Nc1ccc2[nH]c(-c3ccccc3)nc2c1)c1ccccc1 | 20 µM | inactive
24 |  |  | CCOc1cc(NC(=O)c2ccco2)c(OCC)cc1NC(=O)CC | 36.1 µM | 
25 | 13% |  | O=C1NN(c2ccc(Cl)c(Cl)c2)C(=O)/C1=C/c1ccc(N2CCOCC2)c([N+](=O)[O-])c1 | 27 µM | 
26 |  |  | COC(=O)c1ccc(C(=O)OC)c(NS(C)(=O)=O)c1 | 43.5 µM | 
27 | 18.5% |  | CC(=O)Nc1ccc2[nH]c(-c3cccs3)nc2c1 | 20 µM | inactive
28 | 42% |  | CC(=O)Nc1ccc2[nH]c(-c3ccco3)nc2c1 | 25 µM | inactive
29 | inactive |  | O=C(Nc1ccc2[nH]c(-c3ccc(Cl)cc3)nc2c1)C1C2CC3CC(C2)CC1C3 (centres undefined) | < 5 µM | inactive
30 | 37.7% | 8.3 µM | Cn1cc([N+](=O)[O-])c(C(=O)Nc2ccc3[nH]c(-c4ccccc4)nc3c2)n1 | 17.3 µM | 
31 | 19.7% |  | Nc1ccc(C(=O)Nc2ccc3[nH]c(-c4ccccc4)nc3c2)cc1 | < 5 µM | inactive

Source: ChEMBL document CHEMBL1777790, “Discovery of novel HCV polymerase inhibitors using pharmacophore-based virtual screening” (Bioorg Med Chem Lett, 2011)
